In PubChem BioAssay (NCI):
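In this assay, cells in 96-well plates receive the compound at five concentrations for 48 hours. Endpoints are linearly interpolated between the surrounding concentrations. GI50 marks 50% less growth. TGI is the concentration that stops growth completely.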

Key:
Test in all cases: NCI anticancer screen, dose series, 48 h
[1] = system: NCI-H23 lung
[2] = system: NCI-H460 lung
[3] = system: NCI-H522 lung
[4] = system: NCI/ADR-RES ovarian
[5] = system: OVCAR-3 ovarian
[6] = system: OVCAR-4 ovarian
[7] = system: OVCAR-5 ovarian
[8] = system: OVCAR-8 ovarian
[9] = system: PC-3 prostate
[10] = system: RPMI-8226 leukemia
[11] = system: RXF 393 renal
[12] = system: SF-268 CNS
[13] = system: SF-295 CNS
[14] = system: SF-539 CNS
[15] = system: SK-MEL-2 melanoma
[16] = system: SK-MEL-28 melanoma
[17] = system: SK-MEL-5 melanoma
[18] = system: SK-OV-3 ovarian
[19] = system: SN12C renal
[20] = system: SNB-19 CNS
[21] = system: SNB-75 CNS
[22] = system: SR leukemia
[23] = system: SW-620 colon
[24] = system: T-47D breast
[25] = system: TK-10 renal
[26] = system: U251 CNS
[27] = system: UACC-257 melanoma
[28] = system: UACC-62 melanoma
[29] = system: UO-31 renal

## COc1cc(/C=C/C(=O)c2cccc(-n3cc(-c4ccccc4)[nH]c3=O)c2)cc(OC)c1OC
[1]
  GI50: 1430 nM
  TGI: 3290 nM
[2]
  GI50: 1400 nM
  TGI: 2690 nM
[3]
  GI50: 958 nM
  TGI: 2520 nM
[4]
  GI50: 1090 nM
  TGI: 4580 nM
[5]
  GI50: 1230 nM
  TGI: 3140 nM
[6]
  GI50: 1880 nM
  TGI: 5070 nM
[7]
  GI50: 1880 nM
  TGI: 3740 nM
[8]
  GI50: 1620 nM
  TGI: 16400 nM
[9]
  GI50: 3260 nM
  TGI: 20700 nM
[10]
  GI50: 626 nM
  TGI: > 100000 nM
[11]
  GI50: 1710 nM
  TGI: 3530 nM
[12]
  GI50: 1920 nM
  TGI: 5740 nM
[13]
  GI50: 1900 nM
  TGI: 4410 nM
[14]
  GI50: 1680 nM
  TGI: 3120 nM
[15]
  GI50: 2060 nM
  TGI: 4980 nM
[16]
  GI50: 1740 nM
  TGI: 3200 nM
[17]
  GI50: 1400 nM
  TGI: 2690 nM
[18]
  GI50: 3270 nM
  TGI: 11300 nM
[19]
  GI50: 2090 nM
  TGI: 10700 nM
[20]
  GI50: 2350 nM
  TGI: 5690 nM
[21]
  GI50: 4470 nM
  TGI: 16800 nM
[22]
  GI50: 565 nM
  TGI: > 100000 nM
[23]
  GI50: 390 nM
  TGI: 1390 nM
[24]
  GI50: 2190 nM
  TGI: 6900 nM
[25]
  GI50: 3020 nM
  TGI: 9350 nM
[26]
  GI50: 630 nM
  TGI: 1940 nM
[27]
  GI50: 1520 nM
  TGI: 3170 nM
[28]
  GI50: 1520 nM
  TGI: 2980 nM
[29]
  GI50: 1510 nM
  TGI: 4560 nM
